The record followed here is BindingDB's records for doi:10.1021/jm000160l (University of Maryland, 2000).

For experiment [1], the target named is Glyoxalase I (Saccharomyces cerevisiae) (UniProt P50107). Kind of experiment: Binding affinity on yeast glyoxalase I (GlxI) was determined.
For experiment [2], the target named is Glyoxalase I (Pseudomonas putida). The experiment can be described thus: Binding affinity on Pseudomonas putida glyoxalase I (GlxI) was determined.

Chain of Glyoxalase I (Saccharomyces cerevisiae) (P50107 whole entry, looked up): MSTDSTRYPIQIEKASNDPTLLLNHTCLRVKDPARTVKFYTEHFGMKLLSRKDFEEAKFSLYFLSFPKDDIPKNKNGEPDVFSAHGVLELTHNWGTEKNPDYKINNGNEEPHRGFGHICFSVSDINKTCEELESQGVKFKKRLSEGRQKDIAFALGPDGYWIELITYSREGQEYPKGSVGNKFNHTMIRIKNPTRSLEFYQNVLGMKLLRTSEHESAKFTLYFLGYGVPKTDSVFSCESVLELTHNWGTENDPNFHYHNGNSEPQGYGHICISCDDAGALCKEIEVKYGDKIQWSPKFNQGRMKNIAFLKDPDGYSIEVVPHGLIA

`CN(O)C(=O)SC[C@H](NC(=O)CC[C@H](N)C(=O)O)C(=O)NCC(=O)O` [S-(N-methyl-N-hydroxycarbamoyl)glutathione]: the inhibitory constant (Ki) in experiment [1] came out at 68 µM; in experiment [2] it was 86 µM.

Usually Ki stands for the dissociation constant of the complex between target and ligand, obtained from inhibition or displacement.
